The subject of series [1] is MCF-7 human breast cancer cell line. The settings on record: cited from earlier work.
For another series, the target named is isolated HER2 (Homo sapiens, UniProt P04626). Put plainly: HER2 inhibition assay, radiometric protein kinase assay (33PanQinase Activity Assay). It counts as biochemical. The settings on record: for IC50: isolated HER2, radiometric assay, 10 concentrations in singlicate. Here is the method: The IC50 profile of the target compounds was determined using isolated HER2. IC50 values were measured by testing 10 concentrations (1 × 10 ^−4 M to 3 × 10 ^−9 M) of each compound in singlicate. A radiometric protein kinase assay (33PanQinase® Activity Assay) was used for measuring the kinase activity of HER2. The assay was performed in 96-well FlashPlatesTM from PerkinElmer (Boston, MA) in a 50 µl reaction volume. […] The reaction cocktails were incubated at 30 °C for 60 min. The reaction was halted with 50 µl of 2% (v/v) H3PO4, plates were aspirated and washed two times with 200 µl 0.9% (w/v) NaCl. Incorporation of ^33Pi was determined with a microplate scintillation counter (Microbeta, Wallac, Waltham, MA).
isolated HER2, sequence (P04626 23-1255): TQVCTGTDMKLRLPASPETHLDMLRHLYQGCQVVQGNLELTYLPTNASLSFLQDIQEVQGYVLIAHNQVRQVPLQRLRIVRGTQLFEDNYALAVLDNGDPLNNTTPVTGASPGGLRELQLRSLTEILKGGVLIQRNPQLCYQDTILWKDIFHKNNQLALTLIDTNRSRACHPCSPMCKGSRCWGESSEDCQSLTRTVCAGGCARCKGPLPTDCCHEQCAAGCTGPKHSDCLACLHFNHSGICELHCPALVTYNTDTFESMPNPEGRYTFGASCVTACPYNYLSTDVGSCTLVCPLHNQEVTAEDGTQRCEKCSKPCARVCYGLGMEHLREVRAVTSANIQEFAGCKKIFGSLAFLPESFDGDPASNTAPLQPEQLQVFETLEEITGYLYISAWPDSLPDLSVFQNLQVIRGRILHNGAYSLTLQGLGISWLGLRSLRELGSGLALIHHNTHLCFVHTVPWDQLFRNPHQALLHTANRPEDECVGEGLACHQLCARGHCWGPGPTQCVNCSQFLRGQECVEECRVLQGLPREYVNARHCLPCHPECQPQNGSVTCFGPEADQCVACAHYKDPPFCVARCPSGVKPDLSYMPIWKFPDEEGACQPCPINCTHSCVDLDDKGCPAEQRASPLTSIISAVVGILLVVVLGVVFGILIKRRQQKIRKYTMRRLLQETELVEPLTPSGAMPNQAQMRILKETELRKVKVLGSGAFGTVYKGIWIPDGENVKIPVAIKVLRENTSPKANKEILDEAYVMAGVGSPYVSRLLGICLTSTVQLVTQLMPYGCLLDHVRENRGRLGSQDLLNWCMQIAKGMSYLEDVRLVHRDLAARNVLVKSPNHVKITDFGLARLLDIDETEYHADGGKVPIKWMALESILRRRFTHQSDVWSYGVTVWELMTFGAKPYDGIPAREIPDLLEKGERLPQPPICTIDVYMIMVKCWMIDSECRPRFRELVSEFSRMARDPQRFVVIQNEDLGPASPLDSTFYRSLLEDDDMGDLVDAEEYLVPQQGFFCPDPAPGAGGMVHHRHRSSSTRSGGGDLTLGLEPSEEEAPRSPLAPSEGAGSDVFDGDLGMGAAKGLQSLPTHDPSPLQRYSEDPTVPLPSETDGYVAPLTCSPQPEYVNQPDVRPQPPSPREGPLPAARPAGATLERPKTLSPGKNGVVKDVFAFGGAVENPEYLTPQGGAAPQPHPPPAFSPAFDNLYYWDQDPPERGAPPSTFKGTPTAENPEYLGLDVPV
Human epidermal growth factor receptor 2 (HER2) is overexpressed in about 20% of all breast cancers. […] This prompted us to evaluated compounds 7–9 for their in vitro HER2 inhibitory effect. The IC50 profile of the target compounds was determined against isolated HER2 using a radiometric assay (Table 1).

Series [2] has as its system A-375 human melanoma cancer cell line. Put plainly: Proliferation assay (sulphorhodamine-B) in A-375. It counts as cell-based. As to conditions: 72 h of treatment, mean ± SD, read-out: IC50 A375. The protocol: (§1) MCF-7, HCT-116, A-375 and SKBR cells were grown at 37 °C in an atmosphere containing 5% CO2, with Dulbecco’s modified Eagle Medium (DMEM) (Gibco, Grand Island, NY) supplemented with 10% heat-inactivated foetal bovine serum (FBS) (Gibco), 2% L-glutamine, 2.7% sodium bicarbonate, 1% Hepes buffer, 40 mg/L gentamicin and 500 mg/L ampicillin.
(§2) Compounds were dissolved in DMSO and stored at −20 °C. For each experiment, the stock solutions were further diluted in medium to obtain the desired concentrations. The final solvent concentration in cell culture was ≤ 0.1% v/v of DMSO, a concentration without any effect on cell replication. Parallel cultures of MCF-7, HCT-116, A375 and SKBR-3 cells in medium with DMSO were used as controls.
(§3) The effect of the compounds on cell viability was assessed using the sulphorhodamine-B colorimetric assay. Cells suspension (1 × 10^3 cells/well) were seeded onto 24-well plates and incubated for 24 h. The cells were then treated with different concentrations of drugs in their respective culture medium and maintained with the treatment for 3 days. Three days later, wells were aspirated and fresh medium and drug were added. Then cell cultures were maintained for 3 additional days. Thereafter, a Titertek Multiscan (Flow, Irvine, CA) at 492 nm was used. The linearity of the SRB assay was evaluated with a cell number for each cell stock before each cell growth experiment. The IC50 values were calculated from semi-logarithmic dose–response curves by linear interpolation. All the experiments were plated in triplicate wells and were carried out twice.
(§4) We then investigated the effects of the target compounds on cell proliferation on the human breast cancer cell lines MCF-7 and SKBR-3, the human colon carcinoma cell line HCT-116 and the human malignant melanoma cell line A-375. The antiproliferative activity of 7–9 was evaluated using sulphorhodamine-B colorimetric assay after 72 h of treatment (Table 3).
(§5) All experiments were conducted in duplicate and gave similar results. The data are mean ± SD of three independent determinations. MCF-7: human breast cancer cell line; SKBR3: human breast cancer cell line; HCT-116: human colon cancer cell line and A-375: human melanoma cancer cell line.

The subject of series [3] is HCT-116 human colon cancer cell line. Details: method as in PMID 21126804. As to conditions: mean ± SD; cited from earlier work.
The subject of series [4] is SKBR3 human breast cancer cell line. Details: method as in PMID 24946763. As to conditions: mean ± SD; cited from earlier work.
Another series concerns HER2. Put plainly: Western blot, HER2 expression in SKBR cells. It counts as cell-based, human. The settings on record: 5 µM. Here is the method: (§6) We performed a western blot to study differences in protein expression after treatment with 5 µM of 7c.
(§7) SKBR cells seeded on 6-well plates were treated during 4 h and 16, lysed using RIPA Lysis Buffer System (Santa Cruz Biotechnology, Santa Cruz, CA) and quantified by Pierce™ BCA Protein Assay Kit (Thermo Fisher Scientific, Waltham, MA). Western blot was realised using 4× Laemmli sample buffer (Bio-Rad, Hercules, CA) and separated by SDS-polyacrylamide gel electrophoresis (SDS–PAGE) and then, transferred to PVDF membranes. Blocking was realised with milk in PBS 5%.
(§8) The following primary antibodies were used to detect protein expression,: caspase 3: ref-9662S (Cell Signalling, Beverly, MA), caspase 1(14F468): sc-56036 (Santa Cruz Biotechnology, Santa Cruz, CA), cytochrome-c (A-8): sc-13156 (Santa Cruz Biotechnology, Santa Cruz, CA), Bax(B-9): sc-7480 (Santa Cruz Biotechnology, Santa Cruz, CA) and β-actin: sc-47778 (Santa Cruz Biotechnology, Santa Cruz, CA). […] Protein–antibody complexes were made visible using enhanced chemiluminescence (ECL, Bonus, Amersham, Little Chalfont, UK) with the program IMAGE READER LAS-4000 in a LAS-4000 imaging system. Quantity One program were used to analyse the intensity of the signal. […]

Series [5] has as its system HCT-116 human colon cancer cell line. As to the kind of experiment: Proliferation assay (sulphorhodamine-B) in HCT-116. The settings on record: 72 h of treatment, mean ± SD. It counts as cell-based. Here is the method: as §1, §2, §3, §4, §5
Series [6] has as its system SKBR3 human breast cancer cell line. Put plainly: Proliferation assay (sulphorhodamine-B) in SKBR3. The settings on record: SK-BR-3, 72 h of treatment, mean ± SD. In kind it is cell-based. Here is the method: as §1, §2, §3, §4, §5
In series [7] the test system is MCF-7 human breast cancer cell line. As to the kind of experiment: Proliferation assay (sulphorhodamine-B) in MCF-7. In kind it is cell-based. The settings on record: MCF7, 72 h of treatment, mean ± SD. The protocol:
as §1, §2, §3, §4, §5

For a further series, the system named is cytochrome c. Put plainly: Western blot, cytochrome c expression in SKBR cells. It counts as cell-based, human. As to conditions: 5 µM. Here is the method:
as §6, §7, §8
Background: A western blot detects proteins with antibodies after separation by electrophoresis.

In the next series the test system is pro-caspase 3. Put plainly: Western blot, pro-caspase 3 expression in SKBR cells. The settings on record: 5 µM. It counts as cell-based, human. Here is the method: as §6, §7, §8
In another series the test system is Bax. As to the kind of experiment: Western blot, Bax expression in SKBR cells. In kind it is cell-based, human. As to conditions: 5 µM, 4 h and 16 h, control and treated cells. The protocol: as §6, §7, §8
A further series relates to caspase 1. Put plainly: Western blot, caspase 1 expression in SKBR cells. In kind it is cell-based, human. As to conditions: 5 µM, 16 h of exposition. The protocol:
as §6, §7, §8

Read-outs that look alike come from different tables or passages of the source. Where only a bound is given, the exact number is not on record here.

The values below come from publication PMC8279156, “Design, synthesis, HER2 inhibition and anticancer evaluation of new substituted 1,5-dihydro-4,1-benzoxazepines” (Journal of Enzyme Inhibition and Medicinal Chemistry, 2021).

What is called IC50 is the midpoint of a concentration-inhibition curve. In the case of `O=[N+]([O-])c1ccc(S(=O)(=O)N2CC(n3cnc4c(Cl)nc(Cl)nc43)OCc3ccccc32)cc1` (racemic) [Compound 3, (RS)-2,6-dichloro-9-[1-(p-nitrobenzenesulfonyl)-1,2,3,5-tetrahydro-4,1-benzoxazepine-3-yl]-9H-purine], the IC50 in series [1] (mean ± SD, read-out: IC50 MCF-7) is 350 ± 10 nM; in [1] (previously described compounds, introduction, no reference number printed at the values, read-out: IC50 against the MCF-7 cell line), 355 nM; at isolated HER2, 27900 nM; in series [2], 1050 ± 10 nM; in series [3] it was 570 ± 20 nM; in [4], 330 nM.
The melting point is the temperature, or range, at which the solid turns liquid. Compound `Cc1ccc(S(=O)(=O)N2CC(n3cnc4c(Cl)nc(Cl)nc43)OCc3ccccc32)cc1` (stereo not drawn) [Compound 7c, 2,6-Dichloro-9-[1-(p-methylbenzenesulfonyl)-1,2,3,5-tetrahydro-4,1-benzoxazepine-3-yl]-9H-purine] gave a melting point of 193 to 195 °C. Also, the “HER2 expression, normalised with β-actin and relative to control (value 1)” value in the series with HER2 (4 h of treatment) worked out at 0.48. For the same compound, in the series on HER2 (16 h of treatment), the “HER2 expression, normalised with β-actin and relative to control (value 1)” value is reported as 0.07. The “ΔΔG Experiment (3 -> L)” value at isolated HER2 (binding free energy difference relative to bozepinib (3), extracted from IC50 values) is reported as greater than 0.76 kcal/mol. On isolated HER2, this compound came in with an IC50 greater than 100000 nM. Inhibition in series [5] was half-maximal at 860 ± 30 nM (IC50). Further, the IC50 in series [6] was determined as 420 ± 10 nM. Further, the IC50 in series [2] turned out to be 780 ± 50 nM. Besides, the IC50 in [7] was 860 ± 60 nM. For the same compound, the “cytochrome c expression, normalised value relative to control (value 1)” value with cytochrome c (4 h of treatment) is given as 0.93. Besides, in the series with cytochrome c (16 h of treatment), the “cytochrome c expression, normalised value relative to control (value 1)” value came out at 0.70. In addition, the “pro-caspase 3 expression, normalised value relative to control (value 1)” value with pro-caspase 3 (4 h after treatment) was 1.18. Also, the “pro-caspase 3 expression, normalised value relative to control (value 1)” value in the series on pro-caspase 3 (16 h after treatment) is reported as 0.43. Further, the “Bax expression (western blot)” value in the series with Bax is “none expression of Bax”. The “caspase 1 expression, normalised value relative to control (value 1)” value in the series on caspase 1 is 3.1.
